Measured values from patent US12570697B2, “Cyclic peptide useful in the treatment of cancer” (Syntherix Limited, priority 2019, dated 2026).
Entries after “also recorded” stand apart in the source; their conditions may differ. Square brackets hold non-standard residues; d marks the D form. Sar = CNCC(=O)O

Columns and labels:
[1] = tested on: NCI-H460 cells; test: viability assay of CLIP cyclised peptides on NCI-H460 cells (Example 3, Table 2); assay type: cell-based, human; details: for % inhibition at 300 μM / IC50: 96 h; for cytotoxic activity against NCIH460 cells (in words): with and without Nanocin-PRO; for IC50: values in brackets approximate
Procedure: The following protocol was used: • 1) NCI-H460 cells were grown in Ham's F12 media supplemented with 10% FBS. • 2) Cells were harvested and seeded into 96-well plates at 500 cells per well. • 3) Peptides were diluted 1:2 from DMSO stock solutions to generate a 9-point dose range from a top concentration of 300 μM. Final DMSO concentration was constant at 1% (v/v). • 4) In line with the supplied Nanocin-PRO protocol, diluted peptides were incubated with Nanocin-PRO in media for 20 minutes prior to addition to cells. Nanocin-PRO was used at a final assay concentration of 0.2 μl per well. • 5) Cells were grown in the presence of peptide for 96 hours at 37° C., 5% CO2 in a humidified atmosphere. • 6) After 96 h, Alamar blue 10% (v/v) was added, incubated for a further 4 h and fluorescent product detected using a BMG FLUOstar plate reader. • 7) Media only background readings were subtracted before data was analysed using a 4-parameter logistic equation in GraphPad Prism.
Viability assays of the CLIP cyclised peptides were performed to examine the effect of four HILRa clipped peptides on the viability of NCIH460 cells (up to three isomers for each of the peptides). […] Results for HILRa 16A, 16B, 16C and HILRa 17A, 17B and 17C are depicted in FIG. 2.
Assays were performed in the presence and absence of the peptide transfection reagent Nanocin-PRO.

[2] = tested on: human non-small cell lung cancer cells (NCIH-460); test: killing of NCIH-460 cells by CLIPS-cyclised peptides of different warhead length (Table 1); assay type: cell-based
Procedure: The inventor undertook testing of the effect of various peptides which were cyclised using CLIPS technology on the killing of human non-small cell lung cancer cells (NCIH-460) in vitro. For each of the peptides, between two and four isomer fractions were received, giving a total of 12 peptide entities tested.
The following warhead lengths, obtained by adding flanking sarcosine residues, were tested: […]

Molecule	% inhibition at 300 μM ([1]; 0.2 μl Nanocin-PRO per well) [%]	% inhibition at 300 μM ([1]; No Nanocin-PRO) [%]	cytotoxic activity against NCIH460 cells (in words) [1]	IC50 ([1]; 0.2 μl Nanocin-PRO per well) [nM]	% inhibition at 1 mM ([2]; 0.2 μl Nanocin-PRO per well) [%]	% inhibition at 1 mM ([2]; No Nanocin-PRO) [%]
COc1ccc2c(C[C@@H]3NC(=O)[C@@H](NC(C)=O)CSCc4cccc(c4)CSC[C@@H](C(N)=O)NC(=O)CC(c4ccc5ccccc5c4)NC(=O)[C@H](CCCNC(=N)N)NC(=O)C4N(CCC4(C)C)C(=O)CN(C)C(=O)[C@H](CCCNC(=N)N)NC3=O)cc(=O)oc2c1 (single isomer, unassigned) [HILRa CL-15-B, Ac-C[Dac]R[Sar][dmPro]R[Nap]C-NH2]	87.5	20.2				
Ac-CDacHcaSarNapHcaNapC-NH2 [HILRa-CL-16]			negligible activity			
COc1ccc2c(C[C@@H]3NC(=O)[C@@H](NC(C)=O)CSCc4cccc(c4)CSC[C@@H](C(N)=O)NC(=O)CC(c4ccc5ccccc5c4)NC(=O)[C@H](CCCNC(=N)N)NC(=O)C4N(CCC4(C)C)C(=O)CN(C)C(=O)[C@H](CCCNC(=N)N)NC3=O)cc(=O)oc2c1 (single isomer, unassigned) [HILRa CL-15-C, Ac-C[Dac]R[Sar][dmPro]R[Nap]C-NH2]	88.5	23.8				
COc1ccc2c(C[C@@H]3NC(=O)[C@@H](NC(C)=O)CSCc4cccc(c4)CSC[C@@H](C(N)=O)NC(=O)CC(c4ccc5ccccc5c4)NC(=O)[C@H](CCCNC(=N)N)NC(=O)CC(c4ccc5ccccc5c4)NC(=O)CN(C)C(=O)[C@H](CCCNC(=N)N)NC3=O)cc(=O)oc2c1 (single isomer, unassigned) [HILRa CL-17-B, Ac-C[Dac]R[Sar][Nap]R[Nap]C-NH2]	99.3	99.2		~2100		
Ac-CPRGPKPC-NH2 [HILRa-CL-07]					1.5	0.0
COc1ccc2c(C[C@@H]3NC(=O)[C@@H](NC(C)=O)CSCc4cccc(c4)CSC[C@@H](C(N)=O)NC(=O)CC(c4ccc5ccccc5c4)NC(=O)[C@H](CCCNC(=N)N)NC(=O)CC(c4ccc5ccccc5c4)NC(=O)CN(C)C(=O)[C@H](CCCNC(=N)N)NC3=O)cc(=O)oc2c1 (single isomer, unassigned) [HILRa CL-17-C, Ac-C[Dac]R[Sar][Nap]R[Nap]C-NH2]	99.4	99.6		~880		
COc1ccc2c(C[C@@H]3NC(=O)[C@@H](NC(C)=O)CSCc4cccc(c4)CSC[C@@H](C(N)=O)NC(=O)CC(c4ccc5ccccc5c4)NC(=O)[C@H](CCCNC(=N)N)NC(=O)CC(c4ccc5ccccc5c4)NC(=O)CN(C)C(=O)[C@H](CCCNC(=N)N)NC3=O)cc(=O)oc2c1 (single isomer, unassigned) [HILRa CL-17-A, Ac-C[Dac]R[Sar][Nap]R[Nap]C-NH2]	98.7	90.3				
COc1ccc2c(C[C@@H]3NC(=O)[C@@H](NC(C)=O)CSCc4cccc(c4)CSC[C@@H](C(N)=O)NC(=O)CC(c4ccc5ccccc5c4)NC(=O)[C@H](CCCNC(=N)N)NC(=O)C4N(CCC4(C)C)C(=O)CN(C)C(=O)[C@H](CCCNC(=N)N)NC3=O)cc(=O)oc2c1 (single isomer, unassigned) [HILRa CL-15-D, Ac-C[Dac]R[Sar][dmPro]R[Nap]C-NH2]	89.1	25.2				
Ac-C[Sar]PKGPRP[Sar]C-NH2 (CXPKGPRPXC; N-acetyl; C-amide; sarcosines; HILRa-CL-05 Synthesized; Sar (2)..(2) X = Sarcosine; Sar (9)..(9) X = Sarcosine)					1.1	0.0
COc1ccc2c(C[C@@H]3NC(=O)[C@@H](NC(C)=O)CSCc4cccc(c4)CSC[C@@H](C(N)=O)NC(=O)CC(c4ccc5ccccc5c4)NC(=O)[C@H](CCCNC(=N)N)NC(=O)C4N(CCC4(C)C)C(=O)CN(C)C(=O)[C@H](CCCNC(=N)N)NC3=O)cc(=O)oc2c1 (single isomer, unassigned) [HILRa CL-15-A, Ac-C[Dac]R[Sar][dmPro]R[Nap]C-NH2]	84.5	22.7				
Ac-C[Sar][Sar]PKGPRP[Sar][Sar]C-NH2 (CXXPKGPRPXXC; N-acetyl; C-amide; sarcosines; HILRa-CL-06 Synthesized; Sar (2)..(2) X = Sarcosine; Sar (3)..(3) X = Sarcosine; Sar (10)..(10) X = Sarcosine; Sar (11)..(11) X = Sarcosine)					6.1	0.0
Ac-C[Sar][Sar]PRGPRP[Sar][Sar]C-NH2 (CXXPRGPRPXXC; N-acetyl; C-amide; sarcosines; HILRa-CL-03 Synthesized; Sar (2)..(2) X = Sarcosine; Sar (3)..(3) X = Sarcosine; Sar (10)..(10) X = Sarcosine; Sar (11)..(11) X = Sarcosine)					9.5	0.0
Ac-C[Sar]PKGPKP[Sar]C-NH2 (CXPKGPKPXC; N-acetyl; C-amide; sarcosines; HILRa-CL-11 Synthesized; Sar (2)..(2) X = Sarcosine; Sar (9)..(9) X = Sarcosine)					1.2	0.0
Ac-CPKGPRPC-NH2 [HILRa-CL-04]					8.5	0.0
Ac-C[Sar]PRGPKP[Sar]C-NH2 (CXPRGPKPXC; N-acetyl; C-amide; sarcosines; HILRa-CL-08 Synthesized; Sar (2)..(2) X = Sarcosine; Sar (9)..(9) X = Sarcosine)					3.2	0.0
Ac-CDacHcaSarNapHcaNapC-NH2 [HILRa CL-16-C]	0.5	26.9	completely removed the cell killing effect; also recorded: low detectable cancer cell-necrotic activity			
Ac-CDacHcaSarNapHcaNapC-NH2 [HILRa CL-16-B]	0.0	14.1	completely removed the cell killing effect; also recorded: low detectable cancer cell-necrotic activity			
Ac-CDacHcaSarProHcaNapC-NH2 [HILRa CL-14-B]	6.8	5.8	low detectable cancer cell-necrotic activity			
Ac-C[Sar][Sar]PRGPKP[Sar][Sar]C-NH2 (cysteine pairing not given here) [HILRa-CL-09]					3.0	1.1
Ac-CDacHcaSarProHcaNapC-NH2 [HILRa-CL-14]			negligible activity			
Ac-CDacHcaSarProHcaNapC-NH2 [HILRa CL-14-A]	9.9	10.5	low detectable cancer cell-necrotic activity			
Ac-C[Sar]PRGPRP[Sar]C-NH2 (CXPRGPRPXC; N-acetyl; C-amide; sarcosines; HILRa-CL-02 Synthesized; Sar (2)..(2) X = Sarcosine; Sar (9)..(9) X = Sarcosine)					2.0	0.0
Ac-CDacHcaSarNapHcaNapC-NH2 [HILRa CL-16-A]	0.0	9.9	completely removed the cell killing effect; also recorded: low detectable cancer cell-necrotic activity			
